Assay results as given in patent US20240116845A1, “INDENE COMPOUNDS, PHARMACEUTICAL COMPOSITIONS THEREOF, AND THEIR THERAPEUTIC APPLICATIONS” (NucMito Pharmaceuticals Co., Ltd., priority 2021, published 2024).

Experiments:
Assay type in all cases: cell-based
[1] = system: alpha-smooth muscle actin (α-SMA); assay: Inhibition of TGF-β induced expression of alpha-smooth muscle actin in CFSC cells (western blot); details: compound at 10 μM, TGF-β (10 ng/mL), 24 hours
Procedure, shortened: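 Rat CCl4-treated hepatic stellate (CFSC) cells in serum-free DMEM were given compound at 10 μM plus TGF-β 10 ng/mL for 24 h at 37 °C. α-SMA measured by western blot with β-actin, bands quantified densitometrically. Percent inhibition is the decrease in band intensity versus TGF-β alone.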

[2] = system: A431 (epidermoid carcinoma); assay: Antiproliferative activity, CCK-8 cell viability; details: Homo sapiens, A-431, 72 h, read-out: Inhibition of Cancerous Cells, A431; for inhibition at 3.3 µM: compound concentration of 3.3 μM; for inhibition at 10 µM: compound concentration of 10 μM; for inhibition at 30 µM: compound concentration of 30 μM
Procedure, shortened: (§1)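 Cells in DMEM with 10% FBS were treated with compound at 3.3, 10 or 30 μM for 72 h at 37°C. Viability was read by CCK-8 absorbance at 450 nm and expressed relative to DMSO-treated cells. Growth inhibition was binned as ≥50%, 30–50% or <30%.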

[3] = system: A549 (lung adenocarcinoma); assay: Antiproliferative activity, CCK-8 cell viability; details: Homo sapiens, 72 h, read-out: Inhibition of Cancerous Cells, A549; for inhibition at 3.3 µM: compound concentration of 3.3 μM; for inhibition at 10 µM: compound concentration of 10 μM; for inhibition at 30 µM: compound concentration of 30 μM
[4] = system: B16F10 (malignant melanoma); assay: Antiproliferative activity, CCK-8 cell viability; details: Mus musculus, B16-F10, 72 h, read-out: Inhibition of Cancerous Cells, B16F10; for inhibition at 3.3 µM: compound concentration of 3.3 μM; for inhibition at 10 µM: compound concentration of 10 μM; for inhibition at 30 µM: compound concentration of 30 μM
Procedure, shortened: as §1

HeLa (cervical cancer) = assay: Antiproliferative activity, CCK-8 cell viability; details: Homo sapiens, 72 h, read-out: Inhibition of Cancerous Cells, HELA; for inhibition at 3.3 µM: compound concentration of 3.3 μM; for inhibition at 10 µM: compound concentration of 10 μM; for inhibition at 30 µM: compound concentration of 30 μM
HepG2 (liver cancer) = assay: Antiproliferative activity, CCK-8 cell viability; details: Homo sapiens, 72 h, read-out: Inhibition of Cancerous Cells, HepG2; for inhibition at 3.3 µM: compound concentration of 3.3 μM; for inhibition at 10 µM: compound concentration of 10 μM; for inhibition at 30 µM: compound concentration of 30 μM
Procedure, shortened: as §1

[5] = system: MDA-MB-231 (breast cancer); assay: Antiproliferative activity, CCK-8 cell viability; details: Homo sapiens, 72 h, read-out: Inhibition of Cancerous Cells, MDA-MB-231; for inhibition at 3.3 µM: compound concentration of 3.3 μM; for inhibition at 10 µM: compound concentration of 10 μM; for inhibition at 30 µM: compound concentration of 30 μM
Procedure, shortened: as §1

SW480 (colon cancer) = assay: Antiproliferative activity, CCK-8 cell viability; details: Homo sapiens, 72 h, read-out: Inhibition of Cancerous Cells, SW480; for inhibition at 3.3 µM: compound concentration of 3.3 μM; for inhibition at 10 µM: compound concentration of 10 μM; for inhibition at 30 µM: compound concentration of 30 μM
Procedure, shortened: as §1

Compound	inhibition at 10 µM [1] [%]	inhibition at 3.3 µM [2] [%]	inhibition at 10 µM [2] [%]	inhibition at 30 µM [2] [%]	inhibition at 3.3 µM [3] [%]	inhibition at 10 µM [3] [%]	inhibition at 30 µM [3] [%]	inhibition at 3.3 µM [4] [%]	inhibition at 10 µM [4] [%]	inhibition at 30 µM [4] [%]	inhibition at 3.3 µM (HeLa (cervical cancer)) [%]	inhibition at 10 µM (HeLa (cervical cancer)) [%]	inhibition at 30 µM (HeLa (cervical cancer)) [%]	inhibition at 3.3 µM (HepG2 (liver cancer)) [%]	inhibition at 10 µM (HepG2 (liver cancer)) [%]	inhibition at 30 µM (HepG2 (liver cancer)) [%]	inhibition at 3.3 µM [5] [%]	inhibition at 10 µM [5] [%]	inhibition at 30 µM [5] [%]	inhibition at 3.3 µM (SW480 (colon cancer)) [%]	other results
CC1=C(CC(=O)O)c2cc(F)ccc2/C1=C\c1ccc(Oc2ccc(F)cc2)cc1C(F)(F)F [Compound D12, 2-[(1Z)-1-{[2-Trifluoromethyl-4-(4-fluorophenoxy)phenyl]methylidene}-5-fluoro-2-methyl-1H-inden-3-yl]acetic acid]	< 30	30 to 50	≥ 50	≥ 50	30 to 50	≥ 50	≥ 50	< 30	≥ 50	≥ 50	< 30	< 30	< 30	≥ 50	≥ 50	≥ 50	≥ 50	≥ 50	≥ 50	30 to 50	inhibition at 10 µM (SW480 (colon cancer)): ≥ 50%; inhibition at 30 µM (SW480 (colon cancer)): ≥ 50%
CC1=C(CC(=O)O)c2cc(F)ccc2/C1=C\c1cccc(COc2ccc(F)c(F)c2)c1 [Compound A20, 2-[(1Z)-1-({3-[(3,4-Difluorophenoxy)methyl]phenyl}methylidene)-5-fluoro-2-methyl-1H-inden-3-yl]acetic acid]	≥ 80	≥ 50	≥ 50	≥ 50	< 30	30 to 50	≥ 50	30 to 50	30 to 50	≥ 50	30 to 50	30 to 50	≥ 50	≥ 50	≥ 50	≥ 50	≥ 50	≥ 50	≥ 50	< 30	inhibition at 10 µM (SW480 (colon cancer)): 30 to 50%; inhibition at 30 µM (SW480 (colon cancer)): ≥ 50%
CC1=C(CC(=O)O)c2cc(F)ccc2/C1=C\c1cccc(OCc2ccccc2)c1 [Compound A4, 2-[(1Z)-5-Fluoro-1-(3-(benzyloxy)benzylidene)-2-methyl-1H-inden-3-yl]-acetic acid]	50 to 80	30 to 50	≥ 50	≥ 50	30 to 50	≥ 50	≥ 50	≥ 50	≥ 50	≥ 50	30 to 50	≥ 50	≥ 50	< 30	< 30	≥ 50	≥ 50	≥ 50	≥ 50	30 to 50	inhibition at 10 µM (SW480 (colon cancer)): ≥ 50%; inhibition at 30 µM (SW480 (colon cancer)): ≥ 50%
CC1=C(CC(=O)O)c2cc(F)ccc2/C1=C\c1cccc(COc2ccc(F)cc2)c1 [Compound A6, 2-[(1Z)-5-Fluoro-1-({3-[(4-fluorophenoxy)methyl]phenyl}methylidene)-2-methyl-1H-inden-3-yl]acetic acid]	≥ 80	30 to 50	≥ 50	≥ 50	< 30	30 to 50	≥ 50	< 30	30 to 50	≥ 50	≥ 50	≥ 50	≥ 50	≥ 50	≥ 50	≥ 50	≥ 50	≥ 50	≥ 50	< 30	inhibition at 10 µM (SW480 (colon cancer)): ≥ 50%; inhibition at 30 µM (SW480 (colon cancer)): ≥ 50%
CC1=C(CC(=O)O)c2cc(F)ccc2/C1=C\c1cccc(Oc2ccc(Cl)cc2)c1 [Compound D25, 2-[(1Z)-5-Fluoro-2-methyl-1-({3-[4-chlorophenoxy]phenyl}methylidene)-1H-inden-3-yl]acetic acid]	≥ 80	< 30	< 30	≥ 50	< 30	30 to 50	≥ 50	30 to 50	≥ 50	≥ 50	30 to 50	≥ 50	≥ 50	30 to 50	≥ 50	≥ 50	≥ 50	≥ 50	≥ 50	≥ 50	inhibition at 10 µM (SW480 (colon cancer)): ≥ 50%; inhibition at 30 µM (SW480 (colon cancer)): ≥ 50%
COc1ccc(Oc2cccc(/C=C3/C(C)=C(CC(=O)O)c4cc(F)ccc43)c2)cc1 [Compound D22, 2-[(1Z)-5-Fluoro-2-methyl-1-({3-[4-methoxyphenoxy]phenyl}methylidene)-1H-inden-3-yl]acetic acid]	≥ 80	< 30	< 30	≥ 50	30 to 50	30 to 50	≥ 50	< 30	≥ 50	≥ 50	30 to 50	≥ 50	≥ 50	< 30	30 to 50	≥ 50	≥ 50	≥ 50	≥ 50	< 30	inhibition at 10 µM (SW480 (colon cancer)): 30 to 50%; inhibition at 30 µM (SW480 (colon cancer)): ≥ 50%
CC1=C(CC(=O)N(C)O)c2cc(F)ccc2/C1=C\c1ccc(Oc2ccccc2)cc1 [Compound B1, 2-[(1Z)-5-Fluoro-2-methyl-1-[(4-phenoxyphenyl)methylidene]-1H-inden-3-yl]-N-hydroxy-N-methylacetamide]	50 to 80	≥ 50	≥ 50	≥ 50	≥ 50	≥ 50	≥ 50	≥ 50	≥ 50	≥ 50	30 to 50	≥ 50	≥ 50	< 30	30 to 50	≥ 50	≥ 50	≥ 50	≥ 50	≥ 50	inhibition at 10 µM (SW480 (colon cancer)): ≥ 50%; inhibition at 30 µM (SW480 (colon cancer)): ≥ 50%
CC1=C(CC(=O)O)c2cc(F)ccc2/C1=C\c1ccc(Oc2ccc(F)cc2)c(C)c1 [Compound D13, 2-[(1Z)-1-{[3-Methyl-4-(4-fluorophenoxy)phenyl]methylidene}-5-fluoro-2-methyl-1H-inden-3-yl]acetic acid]	< 30	30 to 50	≥ 50	≥ 50	30 to 50	≥ 50	≥ 50	≥ 50	≥ 50	≥ 50	< 30	30 to 50	≥ 50	30 to 50	30 to 50	≥ 50	< 30	≥ 50	≥ 50	30 to 50	inhibition at 10 µM (SW480 (colon cancer)): ≥ 50%; inhibition at 30 µM (SW480 (colon cancer)): ≥ 50%
